# Laboratory results published in ChEMBL document CHEMBL1201862, “PubChem BioAssay data set” (2004).
# The source made the active and inactive calls.
# Experiments:
# [1] = biological target: Transthyretin (Homo sapiens, UniProt P02766); assay: Luminescence-based cell-based high throughput dose response assay to identify activators of Transthyretin (TTR) transcription.; type: functional
# [2] = biological target: NAD-dependent protein deacylase sirtuin-5, mitochondrial (Homo sapiens, UniProt Q9NXA8); assay: SIRT5 desuccinylase inhibitors, dose response, biochemical, fluorescence imaging, cherry-pick, set 5 (AID 720591);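 note: desuccinylation of succinyl peptide AMC substrate read as fluorescence after trypsin release; potency of inhibitors that lower fluorescence and may act on trypsin instead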
# [3] = THP-1 cell cytotoxicity, dose response, cytotoxicity control for Vif-APOBEC3G degradation inhibitor project, THP-1 cells (AID 1117359); type: functional; conditions: Human immunodeficiency virus 1, THP-1
# [4] = cytotoxicity in A549 cells, dose response, cytotoxicity control, cell-based, CellTiter-Glo luminescence, cherry-pick (AID 743484); type: functional
# [5] = biological target: T1, Disintegrin and metalloproteinase domain-containing protein 17 (Homo sapiens, UniProt P78536); assay: ADAM17 protease inhibitors, dose response, counter-screen for ADAM10 exosite inhibitor project, biochemical, quenched FRET substrate (AID 743253)
# [6] = biological target: T1, Disintegrin and metalloproteinase domain-containing protein 17; assay: exosite inhibitors of ADAM17, dose response, biochemical (AID 743260)
# [7] = ADAM10 inhibitors, peptide cleavage, dose response, biochemical, QFRET (AID 743254);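 note: ADAM10 enzyme with the DM2 quenched FRET peptide as substrate; EDANS fluorescence gain as the protease cuts the substrate; inhibitor potency against ADAM10 proteolytic activity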
# [8] = reduction of Shn3 3'UTR firefly luciferase signal, dose response, Schnurri-3 inhibitor project, cell-based, Clone20 osteoblasts, cherry-pick, set 2 (AID 720490); type: functional;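 note: actives lower the luminescence signal as inhibitors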
# [9] = inhibitors of control Renilla luciferase reporter, dose response, counter-screen for Shn3 3'UTR targeting project, Clone20-Shn3RL cells, dual-Glo, cherry-pick, set 2 (AID 720724); type: functional, cell-based; conditions: Dual-Go Shn3RL
# [10] = Shn3 3'UTR reporter inhibitors, dose response, cell-based, Clone20 osteoblasts, firefly luciferase, cherry-picked (AID 624132); type: functional;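 note: firefly luciferase luminescence from reporter carrying the Shn3 3'UTR in osteoblasts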
# [11] = Vero cell cytotoxicity, dose response, cytotoxicity control for Vif-APOBEC3G degradation inhibitor project, Vero cells (AID 1117358); type: functional; conditions: Human immunodeficiency virus 1, Vero
# [12] = HEK293 cell cytotoxicity, dose response, cytotoxicity control, plate reader, cherry-picked samples (AID 743446); type: functional, cell-based
# [13] = cytotoxicity in MIN6 insulinoma cells, dose response, cytotoxicity control, cell-based, mouse insulinoma (AID 2122); type: functional;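 note: confirmatory high-throughput counterscreen run to flag cytotoxic compounds; mouse MIN-6 beta cells carrying an insulin promoter eGFP reporter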
# [14] = LGR2 antagonists, dose response, cell-based, HEK293, CRE-luciferase reporter, cherry pick, set 2 (AID 743343); type: functional;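 note: transfected cells were stimulated with diluted bursicon conditioned medium after compound addition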
# [15] = insulin promoter down-regulators in MIN6 cells, imaging, high-content screening, mouse beta cells (AID 1628); type: functional
# [16] = inhibitors of intracellular T. cruzi replication, confirmation, NIH3T3 host cells, beta-gal luminescence (AID 2044); type: functional, cell-based;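 note: intracellular parasites grown in NIH/3T3 mouse fibroblasts as host cells; luminescent beta-galactosidase reporter signal from transgenic T. cruzi replicating inside host cells; inhibitors lower the luminescence signal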
# [17] = cytotoxicity toward NIH3T3 fibroblasts, dose response, counter-screen, cell-based, ATP luminescence, mouse fibroblasts (AID 2010); type: functional;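 note: cells exposed to compound for about 90 hours before reading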
# [18] = HepG2 cell cytotoxicity, dose response, cytotoxicity control, plate reader, cherry-pick, antagonist series (AID 743416); type: functional, cell-based
# [19] = MC4R antagonists, dose response, counter-screen for LGR2 antagonist project, cell-based, plate reader, cherry pick (AID 743444); type: functional;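 note: transfected HEK 293 cells stimulated with alpha-MSH peptide; potency of inhibitors of the alpha-MSH evoked signal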
# T1 sequence (P78536 whole entry, the tested form may be a part): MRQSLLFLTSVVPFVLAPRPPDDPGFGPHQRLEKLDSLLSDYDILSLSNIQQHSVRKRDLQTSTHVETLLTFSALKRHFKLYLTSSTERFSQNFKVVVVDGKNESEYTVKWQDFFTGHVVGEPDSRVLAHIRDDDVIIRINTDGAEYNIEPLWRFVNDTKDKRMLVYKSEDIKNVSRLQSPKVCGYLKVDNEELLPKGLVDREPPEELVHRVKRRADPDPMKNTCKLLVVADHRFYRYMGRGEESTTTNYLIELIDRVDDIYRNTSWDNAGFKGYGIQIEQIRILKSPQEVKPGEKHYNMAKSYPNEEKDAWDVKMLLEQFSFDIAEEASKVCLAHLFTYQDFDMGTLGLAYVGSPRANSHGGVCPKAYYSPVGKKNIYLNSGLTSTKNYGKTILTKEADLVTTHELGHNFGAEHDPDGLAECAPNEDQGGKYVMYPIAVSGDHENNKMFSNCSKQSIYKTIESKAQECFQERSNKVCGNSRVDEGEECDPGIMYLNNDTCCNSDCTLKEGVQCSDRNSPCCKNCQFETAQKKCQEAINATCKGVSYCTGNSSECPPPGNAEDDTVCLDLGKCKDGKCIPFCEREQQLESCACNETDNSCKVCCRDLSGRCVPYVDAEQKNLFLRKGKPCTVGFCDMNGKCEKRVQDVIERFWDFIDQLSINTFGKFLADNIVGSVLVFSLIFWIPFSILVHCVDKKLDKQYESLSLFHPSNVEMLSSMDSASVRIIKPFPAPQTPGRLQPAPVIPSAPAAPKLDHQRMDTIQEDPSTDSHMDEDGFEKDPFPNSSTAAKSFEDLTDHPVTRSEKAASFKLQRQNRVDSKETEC
# NAD-dependent protein deacylase sirtuin-5, mitochondrial, sequence (Q9NXA8 whole entry): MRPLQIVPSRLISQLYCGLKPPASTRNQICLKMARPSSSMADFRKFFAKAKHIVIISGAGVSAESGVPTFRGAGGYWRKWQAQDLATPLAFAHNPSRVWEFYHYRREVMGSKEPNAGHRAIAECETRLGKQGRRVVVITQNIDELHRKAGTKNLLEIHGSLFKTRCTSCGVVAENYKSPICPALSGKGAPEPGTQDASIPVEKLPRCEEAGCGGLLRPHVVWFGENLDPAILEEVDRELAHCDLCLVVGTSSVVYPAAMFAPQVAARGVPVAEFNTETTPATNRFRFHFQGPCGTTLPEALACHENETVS
smiles,measurement,setting,value
COc1ccc([C@@H]2CC=C(C(=O)O)[C@H](c3ccccc3F)N2S(=O)(=O)c2ccccc2C)cc1,EC50,[1],> 167 µM (inactive)
CCOC(=O)C1(CCOC)CCN(Cc2cnc(-c3cccc(C)c3)nc2)CC1,AC50,[2],> 30 µM (inactive)
same,CC50,[3],> 40 µM (active)
CSc1nc(N)nc(SC2C=CCCC2)c1C#N (centres undefined),AC50,[4],> 52 µM (inactive)
CC(=NNC(=O)CSc1nnc(-c2ccc(C(C)(C)C)cc2)n1-c1ccccc1)c1cccc2ccccc12,IC50,[5],> 69.5 µM (inactive)
same,IC50,[6],> 69.5 µM (inactive)
same,IC50,[7],> 69.5 µM (inactive)
Cc1ccc(CNC(=O)CSc2c3c(nc4ccc(Cl)cc24)CCCC3)o1,AC50,[8],10.7 µM (active)
same,AC50,[9],37.6 µM (active)
same,AC50,[10],5.98 µM (active)
Cc1cc(C)c(Cc2c(C)nc3c(C(=O)NCc4ccco4)cnn3c2C)c(C)c1,CC50,[11],> 40 µM (active)
same,AC50,[12],50 µM (active)
same,IC50,[13],1.42 µM (active)
same,AC50,[14],19.9 µM (active)
same,IC50,[15],1.51 µM (active)
same,EC50,[16],2.67 µM (active)
same,EC50,[17],> 60 µM (not active)
same,AC50,[18],32.9 µM (active)
same,AC50,[19],55.6 µM (active)
